Results published in patent publication US7662860B2 (priority 2003, dated 2010).
Where two headings read alike, the source gives them in different places.

Assays:
SARS-CoV virus = format: cell-based; settings: for CPE / Protective ratio of the infected cells: Vero-E6 cells infected with SARS-CoV; for Protective ratio of the infected cells: >1.5 times judged active

CN(C)CCCSc1ccccc1NC(=O)C=Cc1ccccc1 [cinanserin, 2′-(3-dimethylaminopropylthio)cinnamanilide]
CPE (SARS-CoV virus; 4 ug/mL): + (<25% +)
Protective ratio of the infected cells (SARS-CoV virus; 4 ug/mL): 3.69 times
CPE (SARS-CoV virus; 20 ug/mL): + (<25% +)
Protective ratio of the infected cells (SARS-CoV virus; 20 ug/mL): 3.85 times
protective activity of inhibiting SARS-CoV from infecting Vero-E6 cell (SARS-CoV virus; result in words): evident protective activity
Cytotoxicity of the sample (Vero-E6 cell): —* (key: *: if the cytotoxicity of the sample is >50% when comparing with the cell control, CPE isn't evaluated, and the protective ratio isn't calculated)
